Source: patent publication US5468772A, “Tripterinin compound and method” (Pharmagenesis, Inc., priority 1993, dated 1995)

What was measured:
[1] = system: mouse thymocytes; test: Cytotoxicity, MTT reduction, mouse thymocytes; type: cell-based; conditions: up to 10 μg/ml, highest tested, 24 h
Experimental: (§1) Potential cytotoxicity of tripterinin was assessed by measurement of the effect of the compound on reduction of MTT (3-[4,5-Dimethylthiazol-2-yl]-2,5-diphenyltetrazolium bromide) by cultured cells, an index of cellular respiration and a sensitive assay for the detection of cytotoxicity (Green, et al.). Toxicity was evaluated in vitro in human PBLs and in mouse thymocytes, as detailed in Example 7. Sodium azide was used as a cytotoxic control. Cytotoxicity was also assessed using the standard method of trypan blue dye staining.
(§2) Potential cytotoxicity of tripterinin was assessed by measurement of the compound's effect on the reduction of MTT (3-[4,5-Dimethylthiazol-2-yl]-2,5-diphenyltetrazolium bromide) by cultured cells. MTT, a yellow-colored compound, is reduced by mitochondrial enzymes to form a purple crystalline reduction product (formazan), providing an index of cellular respiration as well as a sensitive assay for cytotoxicity (Green, et al.).
(§3) Cytotoxicity was assessed in cultured human PBLs and mouse thymocytes. […] (to solubilize the formazan crystals, the MTT reduction product), optical density was determined at 570-650 nm in a Molecular Devices microtiter plate reader. Data are expressed as the ratio of the optical density of the tripterinin treated sample to that of untreated controls. […]

[2] = system: TNFα; test: TNFα production by PHA stimulated human PBLs (ELISA); type: cell-based; conditions: 24 h
Experimental: (§4) The effect of tripterinin on the production of the cytokines IL-1b, IL2, IL-6, IFNγ, and TNFα was assessed by measurement of the concentration of these cytokines in PHA stimulated human PBL cultures. Cytokine levels were measured by standard ELISA methods using commercially available kits, as detailed in Example 6. Briefly, assay buffer was added to each of the wells of a microtiter plate containing pre-bound anti-cytokine antibody, followed by addition of standard or sample solution, diluted appropriately for the cytokine concentration measured, followed by a second reporter-labeled antibody specific against the anti-cytokine antibody. […]
(§5) Cytokine measurements were carried out using commercially available ELISA assay kits (R&D Systems), in accordance with the supplier's protocols. In brief, 100 μl of the assay buffer supplied was added to each of the wells of a microtiter plate containing pre-bound anti-cytokine antibody, followed by 100 μl of standard or sample solution, diluted appropriately for the concentration range measured. […]
(§6) Following two hours incubation, the plates were washed four times with assay buffer, and the second antibody, anti-anti-cytokine-horseradish peroxidase (HRP), was added to each well in a volume of 200 μl. […] Optical density was determined using a Molecular Devices microtiter plate reader.

[3] = Solubility of crystalline tripterinin in organic solvents; type: physicochemical; conditions: methylene chloride or acetone
[4] = system: IFNγ; test: IFNγ production by PHA stimulated human PBLs (ELISA); type: cell-based; conditions: 24 h
Experimental: as §4, §5, §6

[5] = system: IL-6; test: IL-6 production by PHA stimulated human PBLs (ELISA); type: cell-based; conditions: 24 h
Experimental: as §4, §5, §6

[6] = system: human PBLs; test: Cytotoxicity, MTT reduction, human PBLs; type: cell-based; conditions: up to 10 μg/ml, highest tested, 24 h
Experimental: as §1, §2, §3

[7] = system: IL-1b; test: IL-1b production by PHA stimulated human PBLs (ELISA); type: cell-based; conditions: 0.7 and 3.13 μg/ml tripterinin, 24 h
Experimental: as §4, §5, §6

## C[C@]12CCC[C@]3(COC1=O)[C@@H]2CC[C@@]12C[C@@H](CC[C@]13O)[C@](C)(O)C2 [tripterinin]
[1]
  cytotoxicity (MTT reduction): No significant toxicity
[1]; listed as Tripterinin
  cytotoxicity (MTT reduction): no significant toxicity
[2]; 0.7 μg/ml tripterinin
  decrease in TNFα production: 93%
[2]; 3.13 μg/ml tripterinin
  decrease in TNFα production: 98%
[3]
  dissolution of crystalline compound: dissolved easily
[4]; 0.7 μg/ml tripterinin
  decrease in IFNγ production: 84%
[4]; 3.13 μg/ml tripterinin
  decrease in IFNγ production: 80%
[5]; 0.7 μg/ml tripterinin
  decrease in IL-6 production: 83%
[5]; 3.13 μg/ml tripterinin
  decrease in IL-6 production: 99%
[6]
  cytotoxicity (MTT reduction): No significant toxicity
[6]; listed as Tripterinin
  cytotoxicity (MTT reduction): no significant toxicity
[7]
  effect on IL-1B production: did not significantly affect
